# Measured values as given in patent US20250230193A1, “CYCLIC COMPOUND HAVING SELECTIVE KRAS INHIBITORY EFFECT ON HRAS AND NRAS” (CHUGAI SEIYAKU KABUSHIKI KAISHA, priority 2022, published 2025).
# *1 amine or outer side, *2 acyl side, *3 side chain or, on linkers, in order; H or OH if unused. Where a SMILES comes first, the peptide text is derived from it. Bridges are numbered along the chain shown (N, C = ends). [ ]: non-standard residue; d: D form. The star is where a group is joined. hPhe(3-Cl-4-CF3) = N[C@@H](CCc1ccc(C(F)(F)F)c(Cl)c1)C(=O)O; NPrPhe(4-CF3) = CCCN[C@@H](Cc1ccc(C(F)(F)F)cc1)C(=O)O; X40 = CCCN([C@@H](Cc1ccc(OC)cc1)C(=O)[*:2])[*:1]; NMeGly(cPent) = CN[C@H](C(=O)O)C1CCCC1; NMeD = CN[C@@H](CC(=O)O)C(=O)O; NMeL = CN[C@@H](CC(C)C)C(=O)O; Morpholide = C1CN(*)CCO1; NMeA = CN[C@@H](C)C(=O)O; Ac5c = NC1(C(=O)O)CCCC1; Aze = O=C(O)[C@@H]1CCN1; Ac4c = NC1(C(=O)O)CCC1; Sar = CNCC(=O)O
# Key:
# [1] = target: GDP-bound HRAS wild-type protein (Homo sapiens, UniProt P01112); experiment: Binding to HRAS by surface plasmon resonance (SPR), Single Cycle Kinetics; details: SPR; for HRAS/KRAS (ratio of KD value with respect to HRAS to KD value with respect to KRAS): GDP-bound HRAS wild-type vs GDP-bound KRAS wild-type
# [2] = target: GDP-bound NRAS wild-type protein (Homo sapiens, UniProt P01111); experiment: Binding to NRAS by surface plasmon resonance (SPR), Single Cycle Kinetics; details: SPR; for NRAS/KRAS (ratio of KD value with respect to NRAS to KD value with respect to KRAS): GDP-bound NRAS wild-type vs GDP-bound KRAS wild-type
# Sequence of GDP-bound NRAS wild-type protein (P01111 whole entry): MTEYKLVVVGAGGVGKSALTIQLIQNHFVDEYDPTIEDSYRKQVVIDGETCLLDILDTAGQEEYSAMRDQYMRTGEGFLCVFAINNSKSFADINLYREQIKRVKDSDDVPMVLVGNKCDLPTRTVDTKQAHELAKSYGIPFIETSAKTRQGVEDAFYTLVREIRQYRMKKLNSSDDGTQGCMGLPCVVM
# Sequence of GDP-bound HRAS wild-type protein (P01112 whole entry): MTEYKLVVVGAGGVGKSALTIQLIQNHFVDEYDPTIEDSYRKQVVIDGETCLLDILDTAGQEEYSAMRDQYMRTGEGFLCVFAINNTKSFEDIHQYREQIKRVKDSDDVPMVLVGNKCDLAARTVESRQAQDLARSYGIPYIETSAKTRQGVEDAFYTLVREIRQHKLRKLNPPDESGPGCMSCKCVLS
smiles,measurement,setting,value
CCCN1C(=O)CN(C)C(=O)[C@@H]2CCN2C(=O)[C@H]([C@@H](C)CC)NC(=O)[C@H](CC(C)C)N(C)C(=O)C[C@@H](C(=O)N(C)C)NC(=O)[C@H](C2CCCC2)N(C)C(=O)C2(CCC2)NC(=O)[C@@H]2CCCN2C(=O)[C@H](CCc2ccc(C(F)(F)F)c(Cl)c2)NC(=O)CN(C)C(=O)[C@@H]1Cc1ccc(C(F)(F)F)cc1 [PP0374] ([NMeL]I[Aze][Sar][NPrPhe(4-CF3)][Sar][hPhe(3-Cl-4-CF3)]P[Ac4c][NMeGly(cPent)]D-NMe2; lactam N-11),HRAS/KRAS (ratio of KD for GDP-bound HRAS wild-type to KD for KRAS),[1],B (a compound having 3 or more and less than 10 is denoted as B)
same,NRAS/KRAS (ratio of KD for GDP-bound NRAS wild-type to KD for KRAS),[2],B (a compound having 3 or more and less than 10 is denoted as B)
CCOC[C@H]1C(=O)N[C@@H]([C@@H](C)CC)C(=O)N(C)CC(=O)N(C)[C@H]2C/C=C\CCN(C2=O)[C@@H](Cc2ccc(C)cc2)C(=O)N(C)CC(=O)N[C@@H](CCc2ccc(C(F)(F)F)c(OC)c2)C(=O)N2C[C@@H](C)C[C@H]2C(=O)NC2(CC(C)(C)C2)C(=O)N(C)[C@@H](C2CCCC2)C(=O)N(C)[C@H](C(=O)N(CC)CC)CC(=O)N1C [PP2405],HRAS/KRAS (ratio of KD value with respect to HRAS to KD value with respect to KRAS),[1],A (a compound having 10 or more and less than 20 is denoted as A)
same,NRAS/KRAS (ratio of KD value with respect to NRAS to KD value with respect to KRAS),[2],A (a compound having 10 or more and less than 20 is denoted as A)
CCCN1C(=O)CN(C)C(=O)CN(C)C(=O)[C@H]([C@@H](C)CC)NC(=O)[C@H](CC(C)C)N(C)C(=O)C[C@@H](C(=O)N2CCOCC2)N(C)C(=O)[C@H](C2CCCC2)N(C)C(=O)C2(CCCC2)NC(=O)[C@@H]2CCCN2C(=O)[C@H](CCc2ccc(C(F)(F)F)c(Cl)c2)NC(=O)CN(C)C(=O)[C@@H]1Cc1ccc(OC)cc1 [PP0135] ([NMeL]I[Sar][Sar][X40][Sar][hPhe(3-Cl-4-CF3)]P[Ac5c][NMeGly(cPent)][NMeD]-Morpholide; lactam N-11),HRAS/KRAS (ratio of KD for GDP-bound HRAS wild-type to KD for KRAS),[1],C (A compound having a KD ratio of 0.1 or more and less than 3 is denoted as C)
same,NRAS/KRAS (ratio of KD for GDP-bound NRAS wild-type to KD for KRAS),[2],B (a compound having 3 or more and less than 10 is denoted as B)
CCCN1C(=O)[C@@H]2CCN2C(=O)[C@H](C)N(C)C(=O)[C@H]([C@@H](C)CC)NC(=O)[C@H](CC(C)C)N(C)C(=O)C[C@@H](C(=O)N(C)C)NC(=O)[C@H](C2CCCC2)N(C)C(=O)C2(CCC2)NC(=O)[C@@H]2CCCN2C(=O)[C@H](CCc2ccc(C(F)(F)F)c(Cl)c2)NC(=O)CN(C)C(=O)[C@@H]1Cc1ccc(C(F)(F)F)cc1 [PP0380] ([NMeL]I[NMeA][Aze][NPrPhe(4-CF3)][Sar][hPhe(3-Cl-4-CF3)]P[Ac4c][NMeGly(cPent)]D-NMe2; lactam N-11),HRAS/KRAS (ratio of KD for GDP-bound HRAS wild-type to KD for KRAS),[1],B (a compound having 3 or more and less than 10 is denoted as B)
same,NRAS/KRAS (ratio of KD for GDP-bound NRAS wild-type to KD for KRAS),[2],C (A compound having a KD ratio of 0.1 or more and less than 3 is denoted as C)
CCO[C@@H]1C[C@H]2C(=O)NC3(CCC3)C(=O)N(C)[C@@H](C3CCCC3)C(=O)N(C)[C@H](C(=O)N3CCOCC3)CC(=O)N(C)[C@@H](CC(F)F)C(=O)N[C@@H]([C@@H](C)CC)C(=O)N(C)CC(=O)N(C)[C@H]3CCCCCN(C3=O)[C@@H](Cc3ccc(C(F)(F)F)cc3)C(=O)N(C)CC(=O)N[C@@H](CCc3cc(F)c(C(F)(F)F)c(F)c3)C(=O)N2C1 [PP0854],HRAS/KRAS (ratio of KD value with respect to HRAS to KD value with respect to KRAS),[1]; KD ratio,B (a compound having 3 or more and less than 10 is denoted as B)
same,NRAS/KRAS (ratio of KD value with respect to NRAS to KD value with respect to KRAS),[2]; KD ratio,B (a compound having 3 or more and less than 10 is denoted as B)
CCCOC[C@H]1C(=O)N[C@@H]([C@@H](C)CC)C(=O)N(C)CC(=O)N(C)[C@H]2C/C=C\CCN(C2=O)[C@@H](Cc2ccc(C)cc2)C(=O)N(C)CC(=O)N[C@@H](CCc2cc(F)c(C(F)(F)F)c(F)c2)C(=O)N2C[C@H](CCC)C[C@H]2C(=O)NC2(CC(C)(C)C2)C(=O)N(C)[C@@H](C2CCCC2)C(=O)N(C)[C@H](C(=O)N(C)C)CC(=O)N1C [PP2203],HRAS/KRAS (ratio of KD value with respect to HRAS to KD value with respect to KRAS),[1],A (a compound having 10 or more and less than 20 is denoted as A)
same,NRAS/KRAS (ratio of KD value with respect to NRAS to KD value with respect to KRAS),[2],A (a compound having 10 or more and less than 20 is denoted as A)
CCO[C@@H]1C[C@H]2C(=O)NC3(CCC3)C(=O)N(C)[C@@H](C3CCCC3)C(=O)N(C)[C@H](C(=O)N(C)CCOC)CC(=O)N(C)[C@@H](CC)C(=O)N[C@@H]([C@@H](C)CC)C(=O)N(C)CC(=O)N(C)[C@H]3C/C=C\CCN(C3=O)[C@@H](Cc3ccc(C(F)(F)F)cc3)C(=O)N(C)CC(=O)N[C@@H](CCc3ccc(C(F)(F)F)c(OC)c3)C(=O)N2C1 [PP1321],HRAS/KRAS (ratio of KD value for GDP-bound HRAS wild-type protein to KD value for KRAS),[1]; KD ratio class,B (a compound having 3 or more and less than 10 is denoted as B)
same,NRAS/KRAS (ratio of KD value for GDP-bound NRAS wild-type protein to KD value for KRAS),[2]; KD ratio class,A (a compound having 10 or more and less than 20 is denoted as A)
